SMILES strings stand for the structures. In brackets after ≈: the same amount, converted by molar mass.

In the first assay the test system is KB. In words: Cytotoxicity against human KB cells. It is filed as functional, cell-based. Conditions: Homo sapiens, KB; read-out: IC50; call rule not given here.
As to `COC(=O)[C@]1(C)CCC[C@@]2(C)[C@H]1CC=C1C=C(C(C)C)C(=O)C[C@@H]12`, the IC50 (as a rule, the point on the concentration scale where inhibition reaches its midpoint) was found to be 12.5 µg/mL (≈ 37.8 µM).
The same measure, in the same setting: to `COC(=O)[C@]1(C)CCC[C@]2(C)c3ccc(C(C)C)cc3C(=O)C[C@@H]12` belongs 4.5 µg/mL (≈ 13.7 µM).
The same measure, in the same setting: to `COC(=O)[C@]1(C)CCC[C@]2(C)c3ccc(C(C)C)cc3[C@H](O)C[C@@H]12` belongs 5.8 µg/mL (≈ 17.6 µM).

Still in this assay, the particulars now being: kb.
In the case of `CC(C)C(=O)CC[C@H]1C(C=O)=CC[C@@H]2[C@]1(C)CCC[C@@]2(C)C(=O)O`, the 50% inhibitory concentration (IC50) result is reported as “Not Active”.
Same read-out and setting: the same measure for `CCO[C@@]1(C(C)C)C=C2[C@H](O)C[C@@H]3[C@](C)(CCC[C@@]3(C)C(=O)OC)[C@H]2CC1`: “Not Active”.
The same measure, in the same setting: the same measure for `COC(=O)[C@]1(C)CCC[C@@]2(C)[C@H]1C[C@@H](O)C1=C[C@@](O)(C(C)C)CC[C@@H]12`: “Not Active”.
On the same count and under the same terms, to `CC(C)(O)c1ccc2c(c1)[C@H](O)C[C@H]1[C@](C)(C(=O)O)CCC[C@]21C` belongs “Not Active”; to `CC(C)C1=CC2=CC[C@@H]3[C@](C)(CCC[C@@]3(C)C(=O)O)[C@H]2CC1` [ABIETIC ACID], “Not Active”.
For `COC(=O)[C@]1(C)CCC[C@@]2(C)[C@H]1CC=C1C=C(C(C)C)CC[C@@H]12` [METHYL ABIETATE], the half-inhibitory concentration (IC50) result is listed as “Not Active”.
